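Assay format: 96-well plates, 48-hour exposure. At the GI50, growth is halved. Definition used: TGI = concentration required for complete inhibition of growth.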 Where a SMILES comes first, the peptide text is derived from it. The star is where a group is joined. Boc = CC(C)(C)OC(=O)*
Experiments:
Test in all cases: NCI tumour cell line growth inhibition, 48 h
HCC-2998 colon = system: HCC-2998 colon
CAKI-1 renal = system: CAKI-1 renal
K-562 leukemia = system: K-562 leukemia
HCT-15 colon = system: HCT-15 colon
A498 renal = system: A498 renal
SF-268 CNS = system: SF-268 CNS
MOLT-4 leukemia = system: MOLT-4 leukemia
MCF7 breast = system: MCF7 breast
MDA-MB-435 = system: MDA-MB-435
SK-MEL-2 melanoma = system: SK-MEL-2 melanoma
MALME-3M melanoma = system: MALME-3M melanoma
EKVX NSCLC = system: EKVX NSCLC
MDA-MB-231 breast = system: MDA-MB-231 breast
U251 CNS = system: U251 CNS
TK-10 renal = system: TK-10 renal
ACHN renal = system: ACHN renal
SK-OV-3 ovarian = system: SK-OV-3 ovarian
KM12 colon = system: KM12 colon
BT-549 breast = system: BT-549 breast

Row | SMILES | TGI (HCC-2998 colon) | TGI (CAKI-1 renal) | TGI (K-562 leukemia) | TGI (HCT-15 colon) | TGI (A498 renal) | TGI (SF-268 CNS) | TGI (MOLT-4 leukemia) | TGI (MCF7 breast) | TGI (MDA-MB-435) | TGI (SK-MEL-2 melanoma) | TGI (MALME-3M melanoma) | TGI (EKVX NSCLC) | TGI (MDA-MB-231 breast) | TGI (U251 CNS) | TGI (TK-10 renal) | TGI (ACHN renal) | TGI (SK-OV-3 ovarian) | GI50 (SF-268 CNS) | TGI (KM12 colon) | TGI (BT-549 breast)
1 | CCOC(=O)C1C(c2ccccc2)C2(C#N)C(=N)OC1(C)C2(C#N)C#N (stereo not drawn) | 27 µM | 20.3 µM | 48.8 µM | > 100 µM | 97.6 µM | 94 µM | 56 µM | > 100 µM | 51.6 µM | 59.6 µM | 54.3 µM | > 100 µM | 26.7 µM | > 100 µM | 69.7 µM | 50.8 µM | > 100 µM | – | – | –
2 | COc1ccc(-c2cc(=O)c3cc4c(cc3[nH]2)OCO4)c(OC)c1 | > 100 µM | > 100 µM | > 100 µM | > 100 µM | – | > 100 µM | > 100 µM | – | – | > 100 µM | 77.2 µM | > 100 µM | – | > 100 µM | > 100 µM | > 100 µM | > 100 µM | 62.6 µM | > 100 µM | –
3 | CC1(C)CC(=O)c2c(nc3c(ccc4ccccc43)c2-c2ccc(NC(=O)CCCCCCCCC(=O)Nc3ccc(-c4c5c(nc6c4ccc4ccccc46)CC(C)(C)CC5=O)cc3)cc2)C1 | – | > 100 µM | > 100 µM | – | – | > 100 µM | > 100 µM | > 100 µM | > 100 µM | > 100 µM | – | > 100 µM | > 100 µM | > 100 µM | > 100 µM | > 100 µM | > 100 µM | – | > 100 µM | –
4 | N#Cc1nc(/C=C/c2cccs2)oc1N | – | > 100 µM | > 100 µM | > 100 µM | > 100 µM | > 100 µM | > 100 µM | > 100 µM | > 100 µM | > 100 µM | – | > 100 µM | > 100 µM | > 100 µM | > 100 µM | > 100 µM | > 100 µM | – | > 100 µM | –
5 | O=C(CSc1nc(-c2ccccc2)c(-c2ccccc2)[nH]1)N/N=C/c1ccc([N+](=O)[O-])cc1 | – | – | – | 28.1 µM | 29.2 µM | 39.2 µM | 48.5 µM | – | – | 26.9 µM | 33.3 µM | – | – | 27.5 µM | 39.4 µM | 92.6 µM | 35.3 µM | – | 31.6 µM | –
6 | Nc1c2ccccc2nc2nccnc12 | > 100 µM | > 100 µM | > 100 µM | > 100 µM | > 100 µM | > 100 µM | > 100 µM | – | – | > 100 µM | > 100 µM | > 100 µM | – | > 100 µM | > 100 µM | > 100 µM | > 100 µM | – | > 100 µM | –
7 | O=C(CC(O)(C(F)(F)Cl)C(F)(F)Cl)CC(O)(C(F)(F)Cl)C(F)(F)Cl | > 10 µM | 6.62 µM | 4.45 µM | > 10 µM | 7.74 µM | > 10 µM | > 10 µM | > 10 µM | 8.63 µM | 3.54 µM | 4.36 µM | 8.02 µM | 5.29 µM | 7.39 µM | > 10 µM | > 10 µM | 5.89 µM | – | > 10 µM | –
8 | CNC(=O)CNC(=O)C(NC(=O)CNC(=O)C1CCCN1C(=O)C(C)NC(=O)C(NC(=O)OC(C)(C)C)C(C)C)C(C)C (stereo not drawn) (Boc-VAPGVG-NHMe; configuration not given here) | > 100 µM | > 100 µM | > 100 µM | > 100 µM | > 100 µM | > 100 µM | > 100 µM | > 100 µM | > 100 µM | > 100 µM | > 100 µM | > 100 µM | > 100 µM | > 100 µM | > 100 µM | > 100 µM | > 100 µM | – | – | –
9 | O=C1CCN(CCC(F)(F)C(F)(F)C(F)(F)C(F)(F)F)C(=S)N1 | – | – | > 100 µM | > 100 µM | – | > 100 µM | > 100 µM | – | – | > 100 µM | > 100 µM | > 100 µM | – | > 100 µM | > 100 µM | > 100 µM | – | – | > 100 µM | –
10 | COc1ccc(-c2c(C(C)=O)c(C)n(C3OC(COC(C)=O)C(OC(C)=O)C(OC(C)=O)C3OC(C)=O)c(=S)c2C#N)cc1 (stereo not drawn) | > 100 µM | > 100 µM | > 100 µM | > 100 µM | > 100 µM | > 100 µM | > 100 µM | > 100 µM | > 100 µM | > 100 µM | > 100 µM | – | > 100 µM | > 100 µM | > 100 µM | > 100 µM | > 100 µM | – | > 100 µM | –
11 | CC1(C)OC[C@@H]([C@H](C=O)OCc2ccccc2)O1 | – | – | > 100 µM | > 100 µM | > 100 µM | > 100 µM | > 100 µM | > 100 µM | > 100 µM | > 100 µM | > 100 µM | > 100 µM | > 100 µM | > 100 µM | > 100 µM | > 100 µM | > 100 µM | – | > 100 µM | –
12 | O=C1NC(=S)NC1C(Cc1ccccc1)c1ccco1 (stereo not drawn) | > 100 µM | > 100 µM | > 100 µM | > 100 µM | > 100 µM | > 100 µM | > 100 µM | > 100 µM | > 100 µM | – | > 100 µM | > 100 µM | > 100 µM | > 100 µM | > 100 µM | > 100 µM | > 100 µM | – | > 100 µM | –
13 | CN1C[C@@H]2CC(=O)CC[C@@H]2C[C@H]1C#N | > 100 µM | > 100 µM | > 100 µM | > 100 µM | > 100 µM | > 100 µM | > 100 µM | – | – | > 100 µM | > 100 µM | – | – | – | – | > 100 µM | > 100 µM | – | > 100 µM | –
14 | CC(Cc1ccc(O)cn1)(NC(=O)c1ccccc1)C(=O)O (stereo not drawn) | > 100 µM | > 100 µM | > 100 µM | > 100 µM | – | > 100 µM | > 100 µM | – | > 100 µM | > 100 µM | > 100 µM | > 100 µM | > 100 µM | > 100 µM | > 100 µM | > 100 µM | > 100 µM | – | > 100 µM | > 100 µM

— PubChem BioAssay (NCI)
